Source: patent publication US6972287B1, “Method of inhibiting amyloid protein aggregation and imaging amyloid deposits” (Pfizer Inc., priority 1999, dated 2005)
Where “and” joins values, the source holds several entries; their conditions need not be identical. Equal entries are not always repeated. Structures can show the parent of a compound that is named as a salt.

Key:
Assay type in all cases: biochemical
Aβ(1-40) [1] = biological target: T1, Aβ(1-40) (Homo sapiens, UniProt P05067); assay: BASSR (Beta-Amyloid Self-Seeding Radioassay), inhibitors of self-seeded amyloid fibril growth
T1 construct: […]; purchased Bachem, Torrance, Calif
Procedure: BASSR (Beta-Amyloid Self-Seeding Radioassay)
(§1) An assay for inhibitors of self-seeded amyloid fibril growth
Assay Buffer—50 mM sodium phosphate, pH 7.5, 100 mM NaCl, 0.02% NaN3, 1 M urea (filter and store at 4° C.).
(§2) Typically, the solution should be stored until no lag phase is seen in the assay.
^125I-labeled Aβ(1-40)—150K-350K cpm/μL in 100% acetonitrile—0.1% trifluoroacetic acid (TFA)—1% β-mercaptoethanol (aliquots stored at −20° C.). ^125I-labeled Aβ(1-40) can be made in accordance with the procedure set forth by H. LeVine, III in Neurobiol. Aging, 16, 755, (1995), which is hereby incorporated by reference, or this reagent may be purchased from Amersham, Arlington Heights, Ill.
The following are the amounts of the components of the reaction mixture sufficient for 50 assay wells:
• 1) Prepare reaction mixture above by mixing components and storing on ice. • 2) Pipet 14.5 μL of reaction mixture into each of 50 wells on a polypropylene U-bottom 96-well microtiter plate on ice. (Costar 3794). • 3) Add 1.7 μL of diluted compound to be tested to each well in a column of eight, including solvent control. Serial 3-fold dilutions from 1 mM (100 μM final) in assay buffer−urea=7 dilutions+zero. Each 96-well plate can therefore accommodate 11 samples+1 Congo Red control (0.039-5 μM final in 2-fold steps). • 4) Seal the plate with aluminum film (Beckman 538619) and incubate for 10 minutes on ice. • 5) Raise the temperature to 37° C. and incubate for 3 to 5 hours (depending on the lot of the peptide). • 6) Remove the aluminum film and add 200 μL/well of ice cold assay buffer with urea, collecting the radiolabeled fibrils by vacuum filtration through 0.2 μm pore size GVWP filters in 96-well plates (Millipore MAGV N22, Bedford, Mass.). Determine the radioactivity of the filters using standard methods well-known to those skilled in the art. BASST (Beta-Amyloid Self-Seeding, Thioflavin T)

Aβ(1-40) [2] = biological target: T1, Aβ(1-40); assay: BASST (Beta-Amyloid Self-Seeding, Thioflavin T), inhibitors of self-seeded amyloid fibril growth; conditions: read-out: BASST (IC50 = μM)
Procedure: as §1
Assay Buffer—50 mM sodium phosphate, pH 7.5, 100 mM NaCl, 0.02% NaN3, 1 M urea (filter and store at 4° C.)
as §2
The following are the amounts of the components of the reaction mixture that result in each of the 50 assay wells:
• 1) Prepare the reaction mix above by mixing the components and storing on ice. • 2) Pipet 14.5 μL of reaction mixture into each of 50 wells of a polystyrene U-bottom 96-well microtiter plate (Corning 25881-96) on ice. • 3) Add 1.7 μL of diluted compound to be tested to each well in a column of eight, including solvent control. Serial 3-fold dilutions from 1 mM (100 μM final) in assay buffer−urea=7 dilutions+zero. Each 96-well plate can therefore accommodate 11 samples+1 Congo Red control (0.039-5 μM final in 2-fold steps). • 4) Seal the plate with aluminum film and incubate for 10 minutes on ice. • 5) Raise the temperature to 37° C. and incubate for 3 to 5 hours (depends on the lot of the peptide). • 6) Remove the aluminum film and add 250 μL/well of 5 μM thioflavin T (ThT) [T-3516, Sigma-Aldrich] in 50 mM glycine-NaOH, pH 8.5. Read fluorescence on a plate reader (ex=440 nm/20 nm; em=485 nm/20 nm) within 5 minutes. BAPA (Beta-Amyloid Peptide Aggregation)

Aβ (1-40) peptide = biological target: T2, Aβ (1-40) peptide (Homo sapiens, UniProt P05067); assay: BAPA (Beta-Amyloid Peptide Aggregation, pH 6.0, filtration); conditions: Aβ (1-40) 33 μM, pH 6.0, 2 to 4 hours at room temperature; replicate values; letter = synthetic lot
T2 construct: 10 μL 0.5 mg/mL Aβ (1-40) peptide in 20% HFIP
Procedure: Each 96-well plate can therefore accommodate 11 samples+1 Congo Red control (0.039-5 μM final in 2-fold steps). • 4) Seal the plate with aluminum film and incubate for 10 minutes on ice. • 5) Raise the temperature to 37° C. and incubate for 3 to 5 hours (depends on the lot of the peptide). • 6) Remove the aluminum film and add 250 μL/well of 5 μM thioflavin T (ThT) [T-3516, Sigma-Aldrich] in 50 mM glycine-NaOH, pH 8.5. […] The purpose of this assays is to provide a higher volume method of assaying the amount of beta amyloid aggregation using an endpoint assay based on filtration. In this assay, hexafluoroisopropanol (HFIP) is used to break down the initial amyloid peptide to a monomer state and use a concentration of 33 μM which is high enough so that aggregation will occur at pH 6.0 in several hours. Methods: […] Then, we incubate for 2 to 4 hours at room temperature. […] We wash the filter plate with 100 μL of the same phosphate buffer. Aggregation was detected on a Microbeta counter after impregnating the filters with Meltilex (1450-441) and is corrected for background.

Aβ (1-42) = biological target: T3, Aβ (1-42) (Homo sapiens, UniProt P05067); assay: BATYM assay (Aβ (1-42) aggregation, Thioflavin T fluorescence); conditions: Aβ 1-42 final concentration 100 μM, 37° C., 1 day, letter = synthetic lot
T3 construct: Required Aβ (1-42) (California Peptide) was dried from its hexafluoroisopropanol (HFIP) stock solution; purchased California Peptide
Procedure: Required Aβ (1-42) (California Peptide) was dried from its hexafluoroisopropanol (HFIP) stock solution. The Aβ (1-42) was dissolved in dimethylsulfoxide (DMSO) and then mixed with phosphate buffered saline (PBS) (pH 7.4). The mixed Aβ (1-42) solution was filtered with a 0.2 μm Omnipore membrane syringe filter Millipore, Bedford, Mass.). The compound to be tested in DMSO (50 times concentrate) was put into each well (0.5 μL/well) of a 96-well plate. The Aβ (1-42) solution was added into each well (24.5 μL/well). The plate was centrifuged at 1,000 g for 5 minutes and incubated at 37° C. for 1 day (Aβ 1-42; final concentration 100 μM).
After incubation Thioflavin T (ThT) (30 μM) solution in glycine-NaOH buffer (pH 8.5, 50 mM) was added into each well (250 μL/well), fluorescence was measured (ex=440/20 nm, em=485/20 nm) using a fluorescence plate reader. The inhibitory activity was calculated as the reduction of fluorescence with the following formula: Inhibition (%)={(F(Aβ)−F(Aβ+compound)}/{F(Aβ)−[…]}×100
The IC50s were calculated by a curve fitting program using the following equation. The data were obtained from two different experiments in triplicate.
x=Concentration of tested compound (M),

[3] = 30 μM soluble Aβ(1-40) + 125I-labeled Aβ(1-40), 37° C., 3 to 5 hours, replicate values, letter = synthetic lot, ppt = precipitate, V-shaped = inhibition followed by precipitation
[4] = 30 μM soluble Aβ(1-40), 37° C., 3 to 5 hours, thioflavin T fluorescence, replicate values, letter = synthetic lot

T3 sequence (P05067 672-713 limits assumed): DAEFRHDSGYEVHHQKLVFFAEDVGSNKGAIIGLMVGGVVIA
T1 sequence (P05067 672-711 limits assumed): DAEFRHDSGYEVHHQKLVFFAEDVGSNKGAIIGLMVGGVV
T2 sequence (P05067 672-711 limits assumed): as above

Compound | IC50 (Aβ(1-40) [1]) | IC50 (Aβ(1-40) [2]) | IC50 (Aβ (1-40) peptide) | IC50 (Aβ(1-40) [1]; [3]) | IC50 (Aβ (1-42)) | IC50 (Aβ(1-40) [2]; [4])
2-{4-[2-(3,4-Dichloro-phenyl)-ethyl]-phenylamino}-benzoate-2-hydroxy-1,1-bis hydroxymethyl-ethyl-ammonium [Example 120] | > 100 µM | 3 µM | > 60 µM |  |  | 
O=C(O)c1ccccc1Nc1ccc(CCc2ccc(Cl)c(Cl)c2)cc1 [Example 1, 2-{4-[2-(3,4-Dichlorophenyl)ethyl]phenylamino}-benzoic acid] |  |  | > 60 µM and 11 µM and > 100 µM and 86 µM | > 100 µM (5×) and 52 µM and 10 µM | > 60 µM and 50 µM and 58.8 µM and 57.8 µM | 
O=C(O)c1cc([N+](=O)[O-])c(-n2ccnc2)cc1Nc1ccc(CCCc2ccc(Cl)c(Cl)c2)cc1 [Example 8] |  |  |  | 15 µM (3×) and 18 µM | 7.17 µM | 
CCN(CC)c1ccc(CCCc2ccc(Nc3ccccc3C(=O)O)cc2)cc1 [Example 19, 2-{4-[3-(4-Diethylaminophenyl)propyl]phenylamino}benzoic acid] |  |  | > 60 µM and 43 µM |  | 31 µM and 34 µM | 
O=C(O)c1ccccc1Nc1ccc(CCCc2ccc(N3CCCCC3)cc2)cc1 [Example 47, 2-{4-[3-(4-Piperidin-1-ylphenyl)propyl]phenylamino}benzoic acid] |  |  |  | > 100 µM | 38.2 µM | 2 µM
CCCNc1ccc(CCCc2ccc(Nc3ccccc3C(=O)O)cc2)cc1 [Example 51, 2-{4-[3-(4-Propylaminophenyl)propyl]phenylamino}benzoic acid] |  |  |  | 85 µM | 39.1 µM | 0.8 µM
CCCNc1cccc(CCCc2ccc(Nc3ccccc3C(=O)O)cc2)c1 [Example 52, 2-{4-[3-(3-Propylaminophenyl)propyl]phenylamino}benzoic acid] |  |  |  | 75 µM | 36.5 µM | 0.5 µM
Cc1ccc(CCc2ccc(Nc3ccc([N+](=O)[O-])cc3C(=O)O)cc2)cc1C [Example 61, 2-{4-[2-(3,4-Dimethyl-phenyl)-ethyl]-phenylamino}-5-nitro-benzoic acid] |  |  | 13 µM |  | 12 µM | 
Cc1cc(-c2cc(Cl)cc(Cl)c2)ccc1Nc1ccccc1C(=O)O [Example 83, 2-(3′,5′-Dichloro-3-methyl-biphenyl-4-ylamino)-benzoic acid] |  |  | 9 µM and 47 µM and 29 µM | > 100 µM |  | > 100 µM
Cc1cc(-c2cc(Br)cc(Br)c2)ccc1Nc1ccccc1C(=O)O [Example 84, 2-(3′,5′-Dibromo-3-methyl-biphenyl-4-ylamino)-benzoic acid] |  |  | 5 µM and 21 µM | > 100 µM |  | > 100 µM
Cc1cc(-c2ccc3c(c2)OCO3)ccc1Nc1ccccc1C(=O)O [Example 85, 2-(4-1,3-Benzodioxol-5-yl-2-methyl-phenylamino)-benzoic acid] |  |  | 8 µM and 77 µM and 45 µM | > 100 µM |  | 18 µM
O=C(O)c1ccccc1Nc1ccc(-c2ccc(Cl)cc2Cl)c(Cl)c1 [Example 86, 2-(2,2′,4′-Trichloro-biphenyl-4-ylamino)-benzoic acid] |  |  | > 10 µM and 89 µM and 37 µM | 40 µM |  | 18 µM
O=C(O)c1ccccc1Nc1ccc(-c2ccc(F)c(F)c2)c(Cl)c1 [Example 87, 2-(2-Chloro-3′,4′-difluoro-biphenyl-4-ylamino)-benzoic acid] |  |  | > 10 µM and 15 µM and 32 µM | > 100 µM |  | 50 µM
O=C(O)c1ccccc1Nc1ccc(-c2cccc(Br)c2)c(Cl)c1 [Example 88, 2-(3′-Bromo-2-chloro-biphenyl-4-ylamino)-benzoic acid] |  |  | > 10 µM and 37 µM and 27 µM | > 100 µM |  | 10 µM
O=C(O)c1ccccc1Nc1ccc(CCc2ccc(Cl)c(Cl)c2)cc1 [Example 118, 2-{4-[2-(3,4-Dichloro-phenyl)-ethyl]-phenylamino}-benzoic acid monopotassium] |  |  | > 60 µM | > 100 µM |  | 6 µM
O=C(O)c1ccccc1Nc1ccc(CCc2ccc(Cl)c(Cl)c2)cc1 [Example 119, 2-{4-[2-(3,4-Dichloro-phenyl)-ethyl]-phenylamino}-benzoic acid calcium salt (1:1)] |  | 3 µM | > 60 µM | > 100 µM |  | 
O=C(O)c1cc(C(F)(F)F)ccc1Nc1ccc(CCc2ccc(Cl)c(Cl)c2)cc1 [Example 143, 2-{4-[2-(3,4-Dichlorophenyl)-ethyl]-phenylamino}-5-trifuoromethyl-benzoic acid] | > 100 µM | 40 µM and 30 µM |  |  | > 100 µM | 
CN(c1ccc(CCc2ccc(Cl)c(Cl)c2)cc1)c1ccccc1C(=O)O [Example 148, 2-({4-[2-(3,4-Dichloro-phenyl)-ethyl]-phenyl}-methyl-amino)-benzoic acid] |  |  |  | > 100 µM | > 100 µM | 
O=C(O)c1ccccc1Nc1cccc(CCc2ccc(Cl)cc2)c1 [Example 154, 2-{3-[2-(4-Chlorophenyl)ethyl]phenylamino}-benzoic acid] |  |  |  | > 100 µM | 70.8 µM | 
O=C(O)c1ccccc1Nc1cccc(CCCc2ccc(Cl)c(Cl)c2)c1 [Example 155, 2-{3-[3-(3,4-Dichlorophenyl)propyl]phenylamino}-benzoic acid] |  |  |  | > 100 µM | 44.6 µM | 3 µM
CCN(CC)c1ccc(CCCc2cccc(Nc3ccccc3C(=O)O)c2)cc1 [Example 156, 2-{3-[3-(4-Diethylaminophenyl)propyl]phenylamino}-benzoic acid] |  |  |  |  | 27.8 µM | 
CCCN(CCC)c1ccc(CCCc2cccc(Nc3ccccc3C(=O)O)c2)cc1 [Example 157, 2-{3-[3-(4-Di-n-propylaminophenyl)propyl]phenylamino}-benzoic acid] |  |  |  |  | 25.9 µM | 
